In US11000033B2, “Ketone or oxime compound, and herbicide” (NISSAN CHEMICAL CORPORATION, priority 2014, dated 2021):

Columns and labels:
Assay type in all cases: in vivo
[1] = tested on: Echinochloa crus-galli var. crus-galli; assay: Test Example 4: herbicidal effect by soil treatment (symbol H)
In short: (§1)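 Seeds were sown in sterilized diluvial soil, covered with about 1.5 cm of soil, and the soil surface was sprayed with a water-diluted emulsion of the compound at a predetermined rate. Plants grew in a greenhouse at 25° C. to 30° C.; effects were scored visually 3 weeks after application.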

Veronica persica = assay: Test Example 5: herbicidal effect by foliage application, plastic box (symbol R); conditions: 320 g/ha, 3 weeks after application
In short: (§2)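 Post-emergence spray; diluvial soil (sterilized), ~1.5 cm seed cover; greenhouse 25–30° C; 14-day-old plants; water-diluted emulsion at predetermined dose; visual score at 3 wk post-treatment.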

soybean = assay: Test Example 5: effect on crop by foliage application, plastic box (symbol d); conditions: 320 g/ha, 3 weeks after application
In short: (§3)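 In a plastic box 7 cm deep filled with sterilized diluvial soil, seeds of crops and weeds such as Digitaria ciliaris, Avena fatua and Amaranthus retroflexus are sown in spots and covered with about 1.5 cm of soil before greenhouse growth at 25–30° C.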

Scirpus juncoides = assay: Test Example 1: herbicidal activity, application before weed generation in submerged conditions (symbol B); conditions: application herbicide amount 320 g/ha
In short: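 Application before weed emergence: an aqueous dilution of the emulsion formulation was poured onto the surface of 4 cm-deep floodwater on the day of sowing. Effect was judged after 3 weeks (greenhouse, 25–30 °C).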

wheat [2] = assay: Test Example 4: effect on crop by soil treatment (symbol e)
In short: (§4)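 Crop seed is sown in spots together with several weed species in a box of sterilized diluvial soil. It is covered by about 1.5 cm of soil and kept in a greenhouse held between 25° C. and 30° C.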

rapeseed = assay: Test Example 5: effect on crop by foliage application, plastic box (symbol g); conditions: 320 g/ha, 3 weeks after application
In short: as §3

wheat [3] = assay: Test Example 5: effect on crop by foliage application, plastic box (symbol e); conditions: 320 g/ha, 3 weeks after application
In short: as §3

Setaria viridis = assay: Test Example 4: herbicidal effect by soil treatment (symbol G)
In short: as §1

Stellaria media = assay: Test Example 4: herbicidal effect by soil treatment (symbol P)
In short: as §1

Digitaria ciliaris = assay: Test Example 5: herbicidal effect by foliage application, plastic box (symbol F); conditions: 320 g/ha, 3 weeks after application
In short: as §2

corn [4] = assay: Test Example 5: effect on crop by foliage application, plastic box (symbol c); conditions: 320 g/ha, 3 weeks after application
In short: as §3

[5] = tested on: Echinochloa crus-galli var. crus-galli; assay: Test Example 3: herbicidal effect by foliage application, Wagner pot (symbol H); conditions: application herbicide amount 320 g/ha; for H (Echinochloa crus-galli var. crus-galli) herbicidal effect grade: Table 24
In short: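 Steps: fill pot with alluvial soil; add water to 0.1–0.5 cm depth; sow weed and rice seed; grow 14 days at 25–30 °C; spray diluted emulsion over the leaves; rate effect after 3 weeks.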

Alopecurus myosuroides = assay: Test Example 4: herbicidal effect by soil treatment (symbol J)
In short: as §1

corn [6] = assay: Test Example 4: effect on crop by soil treatment (symbol c)
In short: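 Sterilized diluvial soil, spot sowing, ~1.5 cm soil cover; greenhouse 25–30° C.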

Apera spica-venti = assay: Test Example 5: herbicidal effect by foliage application, plastic box (symbol L); conditions: 320 g/ha, 3 weeks after application
In short: as §2

Lolium multiflorum Lam. = assay: Test Example 4: herbicidal effect by soil treatment (symbol K)
In short: as §1

rice = assay: Test Example 4: effect on crop by soil treatment (symbol b)
In short: as §4

[7] = application herbicide amount 320 g/ha

CC#Cc1cc(C)c(C2=C(OC(=O)COc3ccccc3)CC(CC(=NOC)C(C)C)C2=O)c(C)c1 (centres unmarked) [9-003]
Herbicidal effect grade, H: Echinochloa crus-galli var. crus-galli [1, 7]: 5 (Herbicidal ratio of 90% or more (almost completely withered))
R: Veronica persica, herbicidal effect grade (Veronica persica): 4 (Herbicidal ratio of 70% or higher and lower than 90%)
d: soybean, effect on crop grade (soybean): 4 (Herbicidal ratio of 70% or higher and lower than 90%)
Herbicidal effect grade, B: Scirpus juncoides (Scirpus juncoides): 4 (Herbicidal ratio of 70% or higher and lower than 90%)
Effect on crop grade, e: wheat (wheat [2]; [7]): 4 (Herbicidal ratio of 70% or higher and lower than 90%)
g: rapeseed, effect on crop grade (rapeseed): 4 (Herbicidal ratio of 70% or higher and lower than 90%)
e: wheat, effect on crop grade (wheat [3]): 4 (Herbicidal ratio of 70% or higher and lower than 90%)
Herbicidal effect grade, G: Setaria viridis (Setaria viridis; [7]): 5 (Herbicidal ratio of 90% or more (almost completely withered))
Herbicidal effect grade, P: Stellaria media (Stellaria media; [7]): 0 (Herbicidal ratio of 5% or lower (almost no effect))
F: Digitaria ciliaris, herbicidal effect grade (Digitaria ciliaris): 5 (Herbicidal ratio of 90% or more (almost completely withered))
c: corn, effect on crop grade (corn [4]): 5 (Herbicidal ratio of 90% or more (almost completely withered))
H (Echinochloa crus-galli var. crus-galli) herbicidal effect grade [5]: 5 (Herbicidal ratio of 90% or more (almost completely withered))
Herbicidal effect grade, J: Alopecurus myosuroides (Alopecurus myosuroides; [7]): 5 (Herbicidal ratio of 90% or more (almost completely withered))
Effect on crop grade, c: corn (corn [6]; [7]): 5 (Herbicidal ratio of 90% or more (almost completely withered))
L: Apera spica-venti, herbicidal effect grade (Apera spica-venti): 5 (Herbicidal ratio of 90% or more (almost completely withered))
Herbicidal effect grade, K: Lolium multiflorum Lam. (Lolium multiflorum Lam.; [7]): 5 (Herbicidal ratio of 90% or more (almost completely withered))
Effect on crop grade, b: directly sowed rice plant (rice; [7]): 5 (Herbicidal ratio of 90% or more (almost completely withered))

CON=C(CC1CC(O)=C(c2c(C)cc(Br)cc2C)C1=O)C1CC1 (centres unmarked) [9-002]
Herbicidal effect grade, H: Echinochloa crus-galli var. crus-galli [1, 7]: 5 (Herbicidal ratio of 90% or more (almost completely withered))
R: Veronica persica, herbicidal effect grade (Veronica persica): 1 (Herbicidal ratio of 5% or higher and lower than 20%)
d: soybean, effect on crop grade (soybean): 0 (Herbicidal ratio of 5% or lower (almost no effect))
Herbicidal effect grade, B: Scirpus juncoides (Scirpus juncoides): 2 (Herbicidal ratio of 20% or higher and lower than 40%)
Effect on crop grade, e: wheat (wheat [2]; [7]): 0 (Herbicidal ratio of 5% or lower (almost no effect))
g: rapeseed, effect on crop grade (rapeseed): 4 (Herbicidal ratio of 70% or higher and lower than 90%)
e: wheat, effect on crop grade (wheat [3]): 3 (Herbicidal ratio of 40% or higher and lower than 70%)
Herbicidal effect grade, G: Setaria viridis (Setaria viridis; [7]): 5 (Herbicidal ratio of 90% or more (almost completely withered))
Herbicidal effect grade, P: Stellaria media (Stellaria media; [7]): 0 (Herbicidal ratio of 5% or lower (almost no effect))
F: Digitaria ciliaris, herbicidal effect grade (Digitaria ciliaris): 5 (Herbicidal ratio of 90% or more (almost completely withered))
c: corn, effect on crop grade (corn [4]): 5 (Herbicidal ratio of 90% or more (almost completely withered))
H (Echinochloa crus-galli var. crus-galli) herbicidal effect grade [5]: 5 (Herbicidal ratio of 90% or more (almost completely withered))
Herbicidal effect grade, J: Alopecurus myosuroides (Alopecurus myosuroides; [7]): 5 (Herbicidal ratio of 90% or more (almost completely withered))
Effect on crop grade, c: corn (corn [6]; [7]): 3 (Herbicidal ratio of 40% or higher and lower than 70%)
L: Apera spica-venti, herbicidal effect grade (Apera spica-venti): 5 (Herbicidal ratio of 90% or more (almost completely withered))
Herbicidal effect grade, K: Lolium multiflorum Lam. (Lolium multiflorum Lam.; [7]): 5 (Herbicidal ratio of 90% or more (almost completely withered))
Effect on crop grade, b: directly sowed rice plant (rice; [7]): 5 (Herbicidal ratio of 90% or more (almost completely withered))

CC(CC1CC(O)=C(c2c(C)cc(C)cc2C)C1=O)=NOC(C)C (centres unmarked) [1-052]
H (Echinochloa crus-galli var. crus-galli) herbicidal effect grade [1, 7]: 5 (Herbicidal ratio of 90% or more (almost completely withered))
R: Veronica persica, herbicidal effect grade (Veronica persica): 3 (Herbicidal ratio of 40% or higher and lower than 70%)
d: soybean, effect on crop grade (soybean): 4 (Herbicidal ratio of 70% or higher and lower than 90%)
Herbicidal effect grade, B: Scirpus juncoides (Scirpus juncoides): 5 (Herbicidal ratio of 90% or more (almost completely withered))
e (wheat) effect on crop grade (wheat [2]; [7]): 5 (Herbicidal ratio of 90% or more (almost completely withered))
g: rapeseed, effect on crop grade (rapeseed): 4 (Herbicidal ratio of 70% or higher and lower than 90%)
e: wheat, effect on crop grade (wheat [3]): 5 (Herbicidal ratio of 90% or more (almost completely withered))
G (Setaria viridis) herbicidal effect grade (Setaria viridis; [7]): 5 (Herbicidal ratio of 90% or more (almost completely withered))
P (Stellaria media) herbicidal effect grade (Stellaria media; [7]): 0 (Herbicidal ratio of 5% or lower (almost no effect))
F: Digitaria ciliaris, herbicidal effect grade (Digitaria ciliaris): 5 (Herbicidal ratio of 90% or more (almost completely withered))
c: corn, effect on crop grade (corn [4]): 4 (Herbicidal ratio of 70% or higher and lower than 90%)
herbicidal effect on H (Echinochloa crus-galli var. crus-galli), grade 0-5 [5]: 5 (Herbicidal ratio of 90% or more (almost completely withered))
J (Alopecurus myosuroides) herbicidal effect grade (Alopecurus myosuroides; [7]): 5 (Herbicidal ratio of 90% or more (almost completely withered))
c (corn) effect on crop grade (corn [6]; [7]): 3 (Herbicidal ratio of 40% or higher and lower than 70%)
L: Apera spica-venti, herbicidal effect grade (Apera spica-venti): 5 (Herbicidal ratio of 90% or more (almost completely withered))
K (Lolium multiflorum Lam.) herbicidal effect grade (Lolium multiflorum Lam.; [7]): 5 (Herbicidal ratio of 90% or more (almost completely withered))
b (directly sowed rice plant) effect on crop grade (rice; [7]): 5 (Herbicidal ratio of 90% or more (almost completely withered))

CON=C(C)CC1CC(OC(=O)C2=CCCC2)=C(c2c(C)cc(C)cc2C)C1=O (centres unmarked) [1-088]
H: Echinochloa crus-galli var. crus-galli, herbicidal effect grade ([1]; 320 g/ha): 5 (Herbicidal ratio of 90% or more (almost completely withered))
R: Veronica persica, herbicidal effect (criteria 0-5) (Veronica persica): 3 (Herbicidal ratio of 40% or higher and lower than 70%)
d: soybean, effect on crop (criteria 0-5) (soybean): 3 (Herbicidal ratio of 40% or higher and lower than 70%)
Herbicidal effect grade, B: Scirpus juncoides (Scirpus juncoides): 5 (Herbicidal ratio of 90% or more (almost completely withered))
e: wheat, effect grade on crop (wheat [2]; 320 g/ha): 3 (Herbicidal ratio of 40% or higher and lower than 70%)
g: rapeseed, effect on crop (criteria 0-5) (rapeseed): 4 (Herbicidal ratio of 70% or higher and lower than 90%)
e: wheat, effect on crop (criteria 0-5) (wheat [3]): 5 (Herbicidal ratio of 90% or more (almost completely withered))
G: Setaria viridis, herbicidal effect grade (Setaria viridis; 320 g/ha): 5 (Herbicidal ratio of 90% or more (almost completely withered))
P: Stellaria media, herbicidal effect grade (Stellaria media; 320 g/ha): 0 (Herbicidal ratio of 5% or lower (almost no effect))
F: Digitaria ciliaris, herbicidal effect (criteria 0-5) (Digitaria ciliaris): 5 (Herbicidal ratio of 90% or more (almost completely withered))
c: corn, effect on crop (criteria 0-5) (corn [4]): 5 (Herbicidal ratio of 90% or more (almost completely withered))
herbicidal effect on H (Echinochloa crus-galli var. crus-galli), grade 0-5 [5]: 5 (Herbicidal ratio of 90% or more (almost completely withered))
J: Alopecurus myosuroides, herbicidal effect grade (Alopecurus myosuroides; 320 g/ha): 5 (Herbicidal ratio of 90% or more (almost completely withered))
c: corn, effect grade on crop (corn [6]; 320 g/ha): 4 (Herbicidal ratio of 70% or higher and lower than 90%)
L: Apera spica-venti, herbicidal effect (criteria 0-5) (Apera spica-venti): 5 (Herbicidal ratio of 90% or more (almost completely withered))
K: Lolium multiflorum Lam., herbicidal effect grade (Lolium multiflorum Lam.; 320 g/ha): 5 (Herbicidal ratio of 90% or more (almost completely withered))
b: directly sowed rice plant, effect grade on crop (rice; 320 g/ha): 5 (Herbicidal ratio of 90% or more (almost completely withered))
